According to patent publication US5068247A, “2-aminopentanoic acid compounds and their use as immunosuppressants” (priority 1989, dated 1991):

What was measured:
[1] = tested on: allo-reactive cytotoxic T cells in spleen of EL4-immunized BALB/c mice; assay: suppression of allo-reactive cytotoxic T cells induced by immunization of mouse with allogenic cells; type: in vivo
Procedure: Male 5- to 7-week-old BALB/c mice (H-2^d) were immunized with leukemia cell EL4 derived from C57BL/6 mice (H-2^b) (10^7 cells/mouse, intraperitoneal administration), and the test substance was administered intraperitoneally 5 times at the doses of 0.001 to 3 mg/kg/day or orally at the doses of 0.3 to 10 mg/kg/day from the day of immunization. Nine to ten days after immunization, the spleen was resected from the mice to prepare a single cell suspension and the suspension was used as effector cell suspension. The ^51 Cr-release assay was carried out in the same way as in Experiment Example 3, using EL4 cells as the target cells to measure the cytotoxic activity.
The activity of allo-reactive cytotoxic T cell is indicated by lytic unit (LU) per spleen. One lytic unit (LU) is defined as the number of effector cells required to cause 25% lysis of 5×10^3 target cells. At the same time, the body weight of mouse and number of spleen cells were also determined.

[2] = tested on: allo-reactive cytotoxic T cell (EL4 target cells); assay: suppression of induction of allo-reactive cytotoxic T cell in mouse allogenic mixed lymphocyte culture (MLC), 51Cr release; type: cell-based
Procedure: The target cells used were leukemia cells EL4 from the syngenic (H-2^b) C57BL/6 mouse as used for preparation of the stimulator cells. By incubating 10^6 EL4 cells in the presence of 370 KBq of Na2^51 CrO4 at 37° C. for 1 hour, ^51 Cr was incorporated into the cytoplasm. The cells were washed, adjusted to the concentration of 10^4 cells/ml and used as the target cells.
For the assay of the cytotoxic activity, 100 μl of the effector cell suspension and 100 μl of the target cell suspension were added to a 96-well flat-bottomed microculture plate, and cultured at 37° C. for 4 hours. The amount of ^51 Cr released into the supernatant was determined and the cytotoxic activity was calculated by the following formula. [formula]
The activity of the cytotoxic T cell is expressed by LU (lytic unit) per 10^6 effector cells.

[3] = tested on: IL-2 production in mouse allogenic MLC; assay: suppression of IL-2 production in mouse allogenic MLC; type: cell-based
Procedure: Mouse allogenic MLC was carried out as follows:
After termination of culture, the supernatant was collected and used as the supernatant of mouse allogenic MLC.
The IL-2 and IL-3 activities in the supernatant of mouse allogenic MLC were assayed in the same way as in Experiment Example 4.

[4] = cytotoxicity to cultured tumor cell line MOLT4; type: cell-based, human; settings: human, molt4 cells, read-out: Suppression
Procedure: (§1) Cytotoxicity to various human tumor cell lines was examined as follows:
(§2) Cells of human cell lines, K562, MOLT4, U937 and HL60 were respectively suspended to the concentration of 4×10^5 cells/ml in the RPMI1640 culture medium supplemented with 20% FCS. Fifty μl of each suspension was added to each well of a 96-well microtest plate to which 50 μl of the test solution had been added. After culturing the suspension at 37° C. in an atmosphere of 5% carbon dioxide for 72 hours, the absorbancy at 570 nm was measured in the same way as with the colorimetry using MTT in Experiment Example 1, and the percent suppression was calculated by the following formula, which was used as an index of cytotoxicity.

MOLT4 = assay: cytotoxicity to cultured tumor cell line MOLT4; type: cell-based, human
Procedure: as §1, §2

[5] = cytotoxicity to cultured tumor cell line U937; type: cell-based, human; settings: human, u937 cells; 0.1 μg/ml; read-out: Suppression
Procedure: as §1, §2

U937 = assay: cytotoxicity to cultured tumor cell line U937; type: cell-based, human
Procedure: as §1, §2

[6] = 0.3 mg/kg/day po × 10, Table 9E

**Q.** With `CCCCCCCCCCCCC/C=C/C[C@@H](O)[C@H](O)[C@@](N)(CO)C(=O)O` [Example 5] as the compound, how does the “Cytotoxic T cell activity” value ([1]; 0.3 mg/kg/day po × 5, Table 9D) read?
**A.** 609 ± 197 LU/spleen

**Q.** What about the “Cytotoxic T cell activity, suppression” value ([1]; 0.3 mg/kg/day po × 5, Table 9D) of the same compound?
**A.** 60.2%

**Q.** And the “Number of spleen cells” value ([1]; 0.3 mg/kg/day po × 5, Table 9D)?
**A.** 1.6 ± 0.3 × 10^8

**Q.** And the “Body weight 10 days after immunization” value [1, 6]?
**A.** 24.2 ± 1.3 g

**Q.** What about the “Cytotoxic T cell activity” value [1, 6] of the same compound?
**A.** 651 ± 257 LU/spleen

**Q.** And the “Cytotoxic T cell activity, suppression” value [1, 6]?
**A.** 76.6%

**Q.** What about the “Number of spleen cells” value [1, 6] of the same compound?
**A.** 1.6 ± 0.3 × 10^8

**Q.** What about the “Body weight 10 days after immunization” value ([1]; 1 mg/kg/day po × 5, Table 9D) of the same compound?
**A.** 25.0 ± 1.4 g

**Q.** What about the “Cytotoxic T cell activity” value ([1]; 1 mg/kg/day po × 5, Table 9D) of the same compound?
**A.** 421 ± 12 LU/spleen

**Q.** What about the “Cytotoxic T cell activity, suppression” value ([1]; 1 mg/kg/day po × 5, Table 9D) of the same compound?
**A.** 72.5%

**Q.** What about the “Number of spleen cells” value ([1]; 1 mg/kg/day po × 5, Table 9D) of the same compound?
**A.** 1.7 ± 0.3 × 10^8

**Q.** And the “Body weight 10 days after immunization” value ([1]; 1 mg/kg/day po × 10, Table 9E)?
**A.** 22.4 ± 0.5 g

**Q.** And the “Cytotoxic T cell activity” value ([1]; 1 mg/kg/day po × 10, Table 9E)?
**A.** 269 ± 179 LU/spleen

**Q.** What about the “Cytotoxic T cell activity, suppression” value ([1]; 1 mg/kg/day po × 10, Table 9E) of the same compound?
**A.** 90.3%

**Q.** What about the “Number of spleen cells” value ([1]; 1 mg/kg/day po × 10, Table 9E) of the same compound?
**A.** 1.5 ± 0.3 × 10^8

**Q.** And the “induction of allo-reactive cytotoxic T cells (in words)” value ([1]; 5 times intraperitoneal or oral)?
**A.** strongly suppresses the induction of allo-reactive cytotoxic T cells

**Q.** And the “induction of allo-reactive cytotoxic T cells (in words), 10 oral administrations” value ([1]; 10 times oral, up to 0.03 mg/kg)?
**A.** significant suppressive activity up to the dose of 0.03 mg/kg

**Q.** And the Cytotoxic activity ([2]; 0.00001 μg/ml, C3H/HeN responder)?
**A.** 9.8 LU/10^6

**Q.** And the Cytotoxic activity ([2]; 0.0001 μg/ml, BALB/c responder)?
**A.** 9.2 LU/10^6

**Q.** And the Cytotoxic activity ([2]; 0.0001 μg/ml, C3H/HeN responder)?
**A.** 8.0 LU/10^6

**Q.** And the Cytotoxic activity ([2]; 0.001 μg/ml, BALB/c responder)?
**A.** 3.7 LU/10^6

**Q.** And the Cytotoxic activity ([2]; 0.001 μg/ml, C3H/HeN responder)?
**A.** 6.8 LU/10^6

**Q.** And the Cytotoxic activity ([2]; 0.01 μg/ml, BALB/c responder)?
**A.** 1.6 LU/10^6

**Q.** And the Cytotoxic activity ([2]; 0.01 μg/ml, C3H/HeN responder)?
**A.** < 0.5 LU/10^6

**Q.** What about the Cytotoxic activity ([2]; 0.1 μg/ml, BALB/c responder) of the same compound?
**A.** < 0.5 LU/10^6

**Q.** And the Cytotoxic activity ([2]; 0.1 μg/ml, C3H/HeN responder)?
**A.** < 0.5 LU/10^6

**Q.** And the Cytotoxic activity ([2]; 1 μg/ml, BALB/c responder)?
**A.** < 0.5 LU/10^6

**Q.** What about the Cytotoxic activity ([2]; 1 μg/ml, C3H/HeN responder) of the same compound?
**A.** < 0.5 LU/10^6

**Q.** What about the inhibition at 10 pg/mL ([2]; Mus musculus, T-cell, 144 h, 0.00001 μg/ml, C3H/HeN responder) of the same compound?
**A.** 35.4%

**Q.** And the inhibition at 0.0001 µg/mL ([2]; Mus musculus, T-cell, 144 h, 0.0001 μg/ml, BALB/c responder)?
**A.** 34.1%

**Q.** What about the inhibition at 0.0001 µg/mL ([2]; Mus musculus, T-cell, 144 h, 0.0001 μg/ml, C3H/HeN responder) of the same compound?
**A.** 47.5%

**Q.** And the inhibition at 0.001 µg/mL ([2]; Mus musculus, T-cell, 144 h, 0.001 μg/ml, C3H/HeN responder)?
**A.** 54.2%

**Q.** What about the inhibition at 0.01 µg/mL ([2]; Mus musculus, T-cell, 144 h, 0.01 μg/ml, C3H/HeN responder) of the same compound?
**A.** > 95%

**Q.** What about the inhibition at 0.1 µg/mL ([2]; Mus musculus, T-cell, 144 h, 0.1 μg/ml, C3H/HeN responder) of the same compound?
**A.** > 95%

**Q.** And the inhibition at 1 µg/mL ([2]; Mus musculus, T-cell, 144 h, 1 μg/ml, C3H/HeN responder)?
**A.** > 95%

**Q.** And the inhibition at 0.001 µg/mL ([2]; Mus musculus, T-cell, 144 h, 0.001 μg/ml, BALB/c responder)?
**A.** 73.2%

**Q.** And the inhibition at 0.01 µg/mL ([2]; Mus musculus, T-cell, 144 h, 0.01 μg/ml, BALB/c responder)?
**A.** 88.4%

**Q.** What about the inhibition at 0.1 µg/mL ([2]; Mus musculus, T-cell, 144 h, 0.1 μg/ml, BALB/c responder) of the same compound?
**A.** > 95%

**Q.** And the inhibition at 1 µg/mL ([2]; Mus musculus, T-cell, 144 h, 1 μg/ml, BALB/c responder)?
**A.** > 95%

**Q.** And the “induction of the allo-reactive cytotoxic T cell (in words), BALB/c responder” value ([2]; Table 3A)?
**A.** markedly inhibited

**Q.** What about the “induction of the allo-reactive cytotoxic T cell (in words), C3H/HeN responder” value ([2]; Table 3B) of the same compound?
**A.** suppressed

**Q.** And the IL-2 activity ([3]; 0.0001 μg/ml)?
**A.** 3.2 U/ml

**Q.** What about the IL-2 activity ([3]; 0.001 μg/ml) of the same compound?
**A.** 2.9 U/ml

**Q.** What about the IL-2 activity ([3]; 0.01 μg/ml) of the same compound?
**A.** < 1.0 U/ml

**Q.** What about the IL-2 activity ([3]; 0.1 μg/ml) of the same compound?
**A.** < 1.0 U/ml

**Q.** And the IL-2 activity ([3]; 1 μg/ml)?
**A.** < 1.0 U/ml

**Q.** What about the inhibition at 0.0001 µg/mL ([3]; Mus musculus, 48 h, 0.0001 μg/ml) of the same compound?
**A.** 28.9%

**Q.** What about the inhibition at 0.001 µg/mL ([3]; Mus musculus, 48 h, 0.001 μg/ml) of the same compound?
**A.** 35.6%

**Q.** What about the inhibition at 0.01 µg/mL ([3]; Mus musculus, 48 h, 0.01 μg/ml) of the same compound?
**A.** 100%

**Q.** What about the inhibition at 0.1 µg/mL ([3]; Mus musculus, 48 h, 0.1 μg/ml) of the same compound?
**A.** 100%

**Q.** What about the inhibition at 1 µg/mL ([3]; Mus musculus, 48 h, 1 μg/ml) of the same compound?
**A.** 100%

**Q.** What about the cytotoxicity at 72 h ([4]; 0.1 μg/ml) of the same compound?
**A.** 10.7%

**Q.** And the cytotoxicity at 72 h ([4]; 1 μg/ml)?
**A.** 12.2%

**Q.** What about the cytotoxicity at 72 h ([4]; 10 μg/ml) of the same compound?
**A.** 16.2%

**Q.** And the Absorbancy (MOLT4; 0.1 μg/ml)?
**A.** 1.031 ± 0.035

**Q.** And the Absorbancy (MOLT4; 1 μg/ml)?
**A.** 1.013 ± 0.013

**Q.** And the Absorbancy (MOLT4; 10 μg/ml)?
**A.** 0.967 ± 0.006

**Q.** What about the cytotoxicity at 72 h [5] of the same compound?
**A.** 0%

**Q.** And the Absorbancy (U937; 0.1 μg/ml)?
**A.** 0.695 ± 0.032

**Q.** And the Absorbancy (U937; 1 μg/ml)?
**A.** 0.699 ± 0.044

**Q.** What about the Absorbancy (U937; 10 μg/ml) of the same compound?
**A.** 0.684 ± 0.038
